Test results taken from patent publication US4880841A, “Process of producing phenethylamine derivatives” (Yamanouchi Pharmaceutical Co., Ltd., priority 1980, dated 1989).
Like-named read-outs stand apart in the source and are kept apart here.

How the values were obtained:
α-adrenergic = assay: α-Adrenergic blocking action: antagonism of the hypertensive response to phenylephrine in anesthetized rats; type: in vivo; settings: Rattus norvegicus, iv, read-out: α-blocking activity (rat) ED50 (mg/kg) i.v.
Procedure: (§1) The pharmacological effects of the compounds of this invention were determined by the following experiments. The effects of the typical compounds of this invention were compared with those of 5-{1-hydroxy-2-[2-(2-methoxyphenoxy)ethylamino]ethyl}-2-methylbenzenesulfonamide (referred to as "Compound A") which is one of the typical compounds disclosed in British Pat. No. 2,006,772 and phentolamine.
A. α-Adrenergic blocking action:
The blood pressure was measured in the rats anesthetized with urethane and treated with pentolinium. The effects of the test samples (intravenous injection) to antagonize the hypertensive response to phenylephrine (10 μg/Kg i.v.) were measured and the results were shown in Table I.

[1] = Antihypertensive effects in spontaneously hypertensive rats (oral administration, tail cuff method); type: in vivo; settings: 30 mg/kg P.O., spontaneously hypertensive rats with systolic blood pressure higher than 150 mmHg
Procedure: as §1
B. Antihypertensive effects in spontaneously hypertensive rats:
Oral administration:--The systolic blood pressure was measured indirectly by the tail cuff method using a programmed electrosphygmanometer (Nacro-Bio-Systems Inc., PE-300) on spontaneously hypertensive rats having the systolic blood pressure of higher than 150 mmHg, the results being shown in Table II.

[2] = rats anesthetized with urethane and treated with pentolinium, i.v. test sample, phenylephrine 10 μg/Kg i.v.

| SMILES | ED50 (α-adrenergic; [2]) | change in systolic blood pressure (mm Hg) at stated dose P.O. [1] | ED50 (α-adrenergic) |
| --- | --- | --- | --- |
| COc1ccccc1OCCNCC(O)c1ccc(C)c(S(N)(=O)=O)c1 (stereo not shown) [Compound A, 5-{1-hydroxy-2-[2-(2-methoxyphenoxy)ethylamino]ethyl}-2-methylbenzenesulfonamide, reference compound] | 0.032 mg/kg | -30 mm Hg | – |
| Cc1ccc(N(CC2=NCCN2)c2cccc(O)c2)cc1 [phentolamine, reference compound] | 0.061 mg/kg | -53 mm Hg | – |
| CCOc1ccccc1OCCNC(C)Cc1ccc(OC)c(SC)c1.Cl (stereo not shown) [Example 8, 4-{2-[2-(2-Ethoxyphenoxy)ethylamino]-2-methylethyl}-2-(methylthio)anisole hydrochloride] | – | -48 mm Hg | 0.0019 mg/kg |
| COc1ccccc1OCCNCC(O)c1ccc(C)c([S+](C)[O-])c1.O=C(O)C(=O)O (stereo not drawn) [Example 5, α-{[2-(2-Methoxyphenoxy)ethylamino]methyl}-4-methyl-3-methylsulfinylbenzenemethanol oxalate] | 0.045 mg/kg | -60 mm Hg | – |
| CCOc1ccccc1OCCNC(C)Cc1ccc(OC)c(S(C)(=O)=O)c1.Cl (stereo not shown) [Example 12, 4-{2-[2-(2-Ethoxyphenoxy)ethylamino]-2-methylethyl}-2-(methylsulfonyl)anisole hydrochloride] | – | -58 mm Hg | 0.00014 mg/kg |
